B1: NT-3: NGF related neurotrophic factor neurotrophin-3; HPLC-purified from Genentech or as COS cell supernatant (protein, UniProt P20783 139-257, looked up)
Neurotrophin-3: YAEHKSHRGEYSVCDSESLWVTDKSSAIDIRGHQVTVLGEIKTGNSPVKQYFYETRCKEARPVKNGCRGIDDKHWNSQCKTSQTYVRALTSENNKLVGWRWIRIDTSCVCALSRKIGRT

Tests used:
gp140^prototrk = biological target: T1, gp140^prototrk (Rattus norvegicus, UniProt P35739); assay: trk tyrosine phosphorylation in PC12 cells treated with NGF (32P labelling / Ptyr immunoblot of trk immunoprecipitates); assay type: cell-based; conditions: 15 min at 37° C., 100 ng/ml FGF or EGF, 100 nM insulin, 1 μg/ml PMA
T1 construct: tyrosine phosphorylation in response to NGF addition to PC12 cells; endogenous in cells; host or cells: PC12 cells
Experimental: FIGS. 1A-C show the tyrosine phosphorylation of gp140trk in PC12 cells and trk-expressing NIH-3T3 cells treated with NGF. FIG. 1A, gp140trk immunoprecipitated from PC12 cells or trk-expressing 3T3 cells labeled with ^32 P-orthophosphate. Immunoprecipitates were prepared with rabbit anti-trk antisera 43-4 (D. Martin-Zanca et al., Mol Cell. Biol. 9:24-33 (1989)) from lysates prepared from 3T3 cells expressing the rat trk gene (trk 3T3) (lane 1) or PC12 cells treated for 5 min with 100 ng/ml NGF at 37° C. (lanes 2 and 4) or mock treated (lane 3). The immunoprecipitate shown in lane 2 was prepared in the presence of the peptide used to generate the rabbit 43-4 trk antibody (Martin-Zanca et al., (1989)). Shown in FIG. 1B is the phosphoamino acid analysis of trk proteins phosphorylated in vitro in p140trk immunoprecipitates from NGF treated PC12 cells in vivo from NGF treated (+) or untreated (-) PC12 cells, or in vivo from trk 3T3 cells. The positions of phosphoserine (S), phosphothreonine (T), and phosphotyrosine (Y) are indicated. FIG. 1C, trk proteins from trk 3T3 cells phosphorylated […]. In lanes 1-3, gp140trk immunoprecipitates were probed with P-tyr antibodies. In lanes 4-6, gp140trk proteins were phosphorylated in vitro in kinase assays. Cells were treated with suramin (lanes 2 and 5) or with 500 ng/ml NGF for 10 min following suramin treatment. The band migrating at 110 kDa is a glycosylation precursor of gp140^prototrk (Martin-Zanca et al., (1989)). The band at the bottom of the figure is IgG. Molecular weight markers in kDa are indicated.
rtrk 3T3 cells were generated by CaPO4 mediated transfection of a rat trk cDNA into NIH-3T3 cells. Rat trk cDNAs were obtained from an embryonic rat DRG cDNA library. The longest trk cDNA obtained (2.4 kbp) was missing approximately 150 bp of the coding region as compared to available mouse and human trk sequence. The missing bases plus minimal (~50 bp) 5' flanking non-coding sequences were replaced from mouse first coding exon sequences and the reconstructed gene was placed downstream of an MSV-LTR. PC12 cells or rtrk 3T3 cells (2×10^7) were labeled with ^32 P orthophosphate (1 mCi.ml in 4 ml) for 4 hr at 37° C. Cells were treated with NGF for the indicated times, washed, lysed in buffer containing 1% NP40, and the lysates immunoprecipitated with trk antibody 43-4 (D. R. Kaplan et al., Cell 61:125-133 (1990)) and electrophoresed on 7.5% SDS-PAGE gels as previously described (Kaplan et al., (1990)). For b, the phosphorylated trk bands were eluted from the gel and phosphoamino acid analysis performed as described (B. M. Sefton et al., J. Cell 24:165-174 (1981)). gp140trk protein from NGF treated PC12 cells was phosphorylated in vitro. For c, rtrk 3T3 cells were treated with 1 mM suramin in Dulbecco's Modified Eagle Medium (DMEM) for 2 h or mock treated. Following extensive washing of the cells with DMEM, NGF was added for the time indicated. Cells were lysed and the lysates were immunoprecipitated with trk antibody. Immunoprecipitates were either subjected to immunoblot analysis with the phosphotyrosine (Ptyr) monoclonal antibody 4G10 (Lanes 1-3), or were analyzed in kinase assays. (D. K. Morrison, et al. Cell 58:649-657 (1989) and Kaplan et al., (1990)). Similar amounts of trk protein were present in each lane.
FIGS. 2A-C. Time course, growth factor specificity, and dose response of trk tyrosine phosphorylation in PC12 cells. A, Time course of trk tyrosine phosphorylation. Cells (2×10^7) were treated with 50 ng/ml NGF at 37° C. B, Effects of growth and differentiation factors on trk tyrosine phosphorylation. Cells were treated with 100 ng/ml NGF, 100 ng/ml basic fibroblast growth factor (FGF) (Boehringer Mannheim Biochemicals), 100 ng/ml epidermal growth factor (EGF) (Upstate Biotechnology, Inc.), 100 nM insulin (Sigma), or 1 μg/ml phorbal 12-myristate […] (PMA) (Sigma) for 15 min. at 37° C. C, dose response of trk tyrosine phosphorylation. […]

p140^prototrk = p140^prototrk (Rattus norvegicus, UniProt P35739); assay: trk tyrosine phosphorylation in rtrk-3T3 cells, suramin treatment followed by NGF (in vivo and immune complex kinase assays); assay type: cell-based; conditions: rtrk-3T3 cells, 1 mM suramin for 2 h
Experimental: rtrk 3T3 cells were generated by CaPO4 mediated transfection of a rat trk cDNA into NIH-3T3 cells. […] PC12 cells or rtrk 3T3 cells (2×10^7) were labeled with ^32 P orthophosphate (1 mCi.ml in 4 ml) for 4 hr at 37° C. […] For c, rtrk 3T3 cells were treated with 1 mM suramin in Dulbecco's Modified Eagle Medium (DMEM) for 2 h or mock treated. Following extensive washing of the cells with DMEM, NGF was added for the time indicated. Cells were lysed and the lysates were immunoprecipitated with trk antibody. Immunoprecipitates were either subjected to immunoblot analysis with the phosphotyrosine (Ptyr) monoclonal antibody 4G10 (Lanes 1-3), or were analyzed in kinase assays. […] Similar amounts of trk protein were present in each lane.

gp145^trkB = gp145^trkB tyrosine phosphorylation in trkB-expressing NIH 3T3 cells (pJM8 lines), immunoprecipitation and α-Ptyr Western; assay type: cell-based, rat; conditions: for time to detection of trkB tyrosine phosphorylation / time to maximal levels of trkB tyrosine phosphorylation / concentration giving maximal gp145^trkB phosphorylation: pJM8-3 cells; for time to detection of trkB tyrosine phosphorylation / time to maximal levels of trkB tyrosine phosphorylation: 100 ng/ml; for concentration giving maximal gp145^trkB phosphorylation: dose response 0.1 to 250 ng/ml; for tyrosine phosphorylation of gp145^trkB: pJM8 trkB-expressing NIH 3T3 cells, 100 ng/ml factor, 5 min
Experimental: A 4.8 kb cDNA encompassing the coding domain of rat trkB (Middlemas et al., (1991)) was cloned into the pMEX plasmid (pJM8) downstream of the MSV promoter. NIH 3T3 cells were cotransfected with the pJM8 plasmid and a plasmid containing the neomycin phosphotransferase gene (L. F. Parada et al., Nature 312:649-651 (1984)), and G418-resistant colonies were selected. PC12 cells (Greene and Tischler, 1976) were grown in DMEM with 10% horse serum and 5% fetal calf serum. NIH 3T3 cells and the derivative cells lines were maintained in DMEM medium containing 10% calf serum. All cells were maintained in a humidified incubator at 37° C. in 5% CO2.
Approximately 10^7 cells were treated at 37° C. for 5 min with 100 ng/ml growth factors or at the concentrations and lengths of time noted in the text. NP-40 plate lysis and gp145^trkB immunoprecipitation with anti-serum 443 were performed as previously described (Kaplan et al., (1990), (1991)). The phosphotyrosine content was analyzed by Western transfer using monoclonal antibody 4G10 as previously described (Morrison et al., (1989)).
The product of the trk proto-oncogene (gp140^proto-trk) is tyrosine phosphorylated in response to NGF in PC12 cells, NGF-responsive neuroblastoma cells, heterologous fibroblasts and Xenopus oocytes (Kaplan et al., (1991); A. R. Nebreda et al., Science 252:558-560 (1991); Klein et al., (1991)). Next it was examined whether NGF elicited tyrosine phosphorylation of gp145^trkB in trkB-expressing NIH 3T3 cells. Cell line pJM8-3 was treated with high concentrations of NGF (100 ng/ml) for 5 minutes. The cells were lysed, immunoprecipitated with anti-trkB antiserum 443, transferred to nitrocellulose filters and probed with anti-phosphotyrosine (α-Ptyr) antibodies. As a negative control, untransfected NIH-3T3 cells were treated in parallel, while PC12 cells were used as a positive control for NGF responsiveness (Kaplan et al., (1991)).
BDNF and NT-3 are neurotrophic factors that display many functional and structural features that are reminiscent of NGF. The genes encoding BDNF and NT-3 have recently been cloned and used to express high levels of the biologically active factors in pure form (A. Rosenthal et al., Neuron 4:773 (1990)). It was tested whether these NGF-related neurotrophic factors would stimulate phosphorylation of the trkB glycoprotein by exposing the pJM-8 cell lines to 100 ng/ml of NGF, BDNF, or NT-3 (~4 nM) for 5 minutes. The cells were then lysed and the lysates incubated with a trkB anti-peptide antiserum (443) with or without excess peptide. After transfer to nitrocellulose filters, the trkB proteins were probed with an anti-phosphotyrosine (α-ptyr) monoclonal antibody (FIG. 10) (Kaplan et al. (1991)). […] Thus, both neurotrophic factors NT-3 and BDNF can elicit tyrosine phosphorylation of gp145^trkB in a manner similar to that observed for NGF stimulation of the trk receptor. Similar results have been obtained with NT-3 and BDNF in Rat2 cells expressing trkB.
Having detected gp145^trkB phosphorylation in response to BDNF and NT-3, it was next determined whether unrelated polypeptide growth factors were capable of eliciting a similar response. Platelet-derived growth factor (PDGF; 100 ng/ml), epidermal growth factor (EGF; 100 ng/ml), insulin (100 ng/ml), and basic fibroblast growth factor (bFGF; 100 ng/ml), were added independently to exponentially growing cultures of pJM8-3 cells.
The previous studies were done in the presence of high concentrations of neurotrophic factors. Dose response experiments were next performed to determine the range of concentrations at which phosphorylation of the trkB receptor was stimulated by NT-3 or BDNF. Cells were incubated with quantities of NT-3 or BDNF ranging from 0.1 ng/ml to 250 ng/ml and treated as described in FIG. 12. […]

trkB = assay: Growth factor stimulation of trkB transfected 3T3 cells (pJM8-3), COS cell supernatants, Ptyr blot; assay type: cell-based; conditions: trkB-expressing 3T3 cells (pJM8-3), 100 μl/ml NT-3 COS cell supernatant, 10 minutes at 37° C.
Experimental: To study the expression of trkB in transfected cell lines, full length trkB cDNAs were cloned into CMV and MuLV LTR expression vectors and transfected into NIH-3T3 fibroblasts, PC 12 pheochromocytoma cells and NR18 cells (a derivative of PC12 cells). Stable G418 resident clones were picked and expanded. Assays to detect cell lines expressing trkB were performed by detergent lysis of the cells, followed by WGA-sepharose adsorption. The adsorbed material was analyzed by SDS-PAGE on 7.5% gels, transferred to nitrocellulose and probed with antisera 442, a trkB specific rabbit antisera. The Western blots contained a WGA-sepharose extract of mouse brain as a control and BIORAD prestained molecular weight standards (200, 116, 80 and 43 kDa).
To study growth factor stimulation in cells transfected with trkB, NIH 3T3 trk transfected 3T3 (pJM7-23), trkB transfected 3T3 cells (pJM8-3) and non-transfected 3T3 cells (control cells) were exposed to media or media containing 100 μl/ml of NGF-COS cell supernatant, 100 μl/ml NT-3 COS cell supernatant, 5 μl/ml human platelet extract, or 50 μl/ml human platelet extract, for 10 minutes at 37° C. The plates were rinsed, lysed, and the trk or trkB was immunoprecipitated with rabbit antisera 443 and protein A Sepharose in the presence or absence of 10 μg/ml blocking peptide. […]

T1 sequence (P35739 33-799): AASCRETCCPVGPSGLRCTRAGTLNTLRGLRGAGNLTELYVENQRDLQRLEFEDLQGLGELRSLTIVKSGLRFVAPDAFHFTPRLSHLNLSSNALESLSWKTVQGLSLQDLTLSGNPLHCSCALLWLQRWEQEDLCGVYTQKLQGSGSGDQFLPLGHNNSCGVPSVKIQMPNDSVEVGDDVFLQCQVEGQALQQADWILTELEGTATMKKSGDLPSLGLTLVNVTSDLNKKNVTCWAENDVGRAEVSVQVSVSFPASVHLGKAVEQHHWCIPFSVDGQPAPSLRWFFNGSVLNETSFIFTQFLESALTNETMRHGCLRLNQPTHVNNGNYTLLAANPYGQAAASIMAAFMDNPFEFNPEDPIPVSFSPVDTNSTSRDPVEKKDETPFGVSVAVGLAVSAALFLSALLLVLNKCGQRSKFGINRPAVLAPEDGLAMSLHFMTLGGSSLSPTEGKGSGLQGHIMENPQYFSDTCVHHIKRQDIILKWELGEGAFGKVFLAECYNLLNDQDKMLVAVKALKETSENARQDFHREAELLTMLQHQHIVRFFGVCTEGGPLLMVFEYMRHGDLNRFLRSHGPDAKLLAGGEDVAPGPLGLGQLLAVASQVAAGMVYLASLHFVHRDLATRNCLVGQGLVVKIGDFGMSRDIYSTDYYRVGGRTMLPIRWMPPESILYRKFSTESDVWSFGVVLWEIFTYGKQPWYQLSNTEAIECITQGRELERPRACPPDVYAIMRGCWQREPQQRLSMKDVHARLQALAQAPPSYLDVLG
Chain of p140^prototrk (P35739 33-799): as above

Row | Molecule | induction of trk tyrosine phosphorylation by growth and differentiation factors (gp140^prototrk) | tyrosine phosphorylation of gp145^trkB (gp145^trkB) | further results
1 | CCCCCCCCCCCCCC(=O)O[C@@H]1[C@@H](C)[C@@]2(O)[C@@H](C=C(CO)C[C@]3(O)C(=O)C(C)=C[C@@H]23)[C@@H]2C(C)(C)[C@]12OC(C)=O [PMA, phorbal 12-myristate 12-acetate, reference compound] | failed to induce |  | 
2 | Cc1ccc(C(=O)Nc2ccc(S(=O)(=O)O)c3cc(S(=O)(=O)O)cc(S(=O)(=O)O)c23)cc1NC(=O)c1cccc(NC(=O)Nc2cccc(C(=O)Nc3cc(C(=O)Nc4ccc(S(=O)(=O)O)c5cc(S(=O)(=O)O)cc(S(=O)(=O)O)c45)ccc3C)c2)c1 [suramin, reference compound] |  |  | tyrosine phosphorylation of p140^prototrk in vivo and in immune complex kinase assays (p140^prototrk): markedly reduced
3 | BDNF: NGF related neurotrophic factor, brain-derived neurotrophic factor |  | strong phosphorylation | time to detection of trkB tyrosine phosphorylation (gp145^trkB): one; time to maximal levels of trkB tyrosine phosphorylation (gp145^trkB): ≤ 5 min; concentration giving maximal gp145^trkB phosphorylation (gp145^trkB): 50 ng/mL
4 | EGF: epidermal growth factor (Upstate Biotechnology, Inc.) [reference compound] | failed to induce | No tyrosine-phosphorylated gp145^trkB was detected | 
5 | PDGF [reference compound] |  | No tyrosine-phosphorylated gp145^trkB was detected | 
6 | basic FGF: basic fibroblast growth factor (Boehringer Mannheim Biochemicals) [reference compound] | failed to induce | No tyrosine-phosphorylated gp145^trkB was detected | 
7 | insulin: insulin (Sigma) [reference compound] | failed to induce | No tyrosine-phosphorylated gp145^trkB was detected | 
8 | B1 |  | strong phosphorylation | time to detection of trkB tyrosine phosphorylation (gp145^trkB): one; time to maximal levels of trkB tyrosine phosphorylation (gp145^trkB): ≤ 5 min; concentration giving maximal gp145^trkB phosphorylation (gp145^trkB): 50 ng/mL; stimulation of trkB tyrosine phosphorylation (trkB): stimulated

Reference: patent US6071709A, “Nerve growth factor/receptor complex” (The United States of America as represented by the …, priority 1992, dated 2000)
